Experimental findings from article PMC12029774 (Molecules, 2025) are described below.

Ends that are not written are not given here.

Assay [1] has as its system rVSV-GFP-∆G-Spike, SARS-CoV-2 Delta spike. The following applies: 1 h.
Assay [2] relates to rVSV-GFP-∆G-Spike, SARS-CoV-2 Omicron B.A1 spike. The settings on record: 1 h.

The IC50 is the concentration needed to halve the response being measured. Low values mean greater potency in that assay, high ones weaker potency in that assay. Regarding EWHGAHIKVTQLF-NH2 [PEP10], the concentration for half-maximal inhibition (IC50) is 47 µM in assay [1] and 140 µM in assay [2].
